This note sets out measurements from patent US11840686B2, “Modulation of prekallikrein (PKK) expression” (Ionis Pharmaceuticals, Inc., priority 2013, dated 2023).

The subject of the series is human PKK mRNA. Briefly: Antisense inhibition of human PKK mRNA in HepaRG cells, 3,000 nM (Example 1). The series is classed as cell-based. Conditions: relative to untreated control cells. An outline of the steps:
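HepaRG cells, 20,000 per well, were electroporated with 3,000 nM 5-10-5 MOE gapmer (phosphorothioate, 5-methylcytosine). After about 24 h, PKK mRNA was measured by qRT-PCR with primer probe set RTS3454 and normalised to RIBOGREEN total RNA. Values are percent inhibition versus untreated cells.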

Setting [1] is: Table 1, PKK mRNA, HepaRG cells, 3,000 nM, electroporation, ~24 h.
Where [2] appears, read: Table 4, HepaRG cells, electroporation with 3,000 nM antisense oligonucleotide, approx. 24 hours, PKK mRNA by RT-PCR (RTS3454).
[3] abbreviates: Table 2, PKK mRNA, HepaRG cells, 3,000 nM, electroporation, ~24 h.
[4] abbreviates: Table 3, HepaRG cells, electroporation with 3,000 nM antisense oligonucleotide, approx. 24 hours, PKK mRNA by RT-PCR (RTS3454).

Strand notation (5' to 3'): a small letter for the sugar, then the base; units joined by * are phosphorothioate-linked, units joined directly phosphodiester-linked; [ ] holds rarer units or linkages, { } end groups; capitals alone tell only the bases. e = 2'-O-(2-methoxyethyl) (MOE); [5mC] = 5-methylcytosine; d = 2'-deoxy (DNA)

The term % inhibition denotes the share of the control response that was lost under treatment. As for “530983 (antisense eA*eT*eG*eG*e[5mC]*dA*dG*dG*dG*dT*dT*d[5mC]*dA*dG*dG*eT*eA*eA*eA*eG) [compound 530983]”, the “% inhibition” value under setting [1] was 9%.

On to “530946 (antisense eT*eA*e[5mC]*eA*eT*d[5mC]*d[5mC]*d[5mC]*d[5mC]*dA*d[5mC]*d[5mC]*dT*d[5mC]*dT*eG*eA*eA*eG*eA) [compound 530946]”, for which the “% inhibition” value under setting [1] amounted to 0%.

Take “531186 (e[5mC]*e[5mC]*eA*eT*eT*dA*d[5mC]*dT*d[5mC]*dT*d[5mC]*dA*dA*dG*d[5mC]*eT*e[5mC]*e[5mC]*eA*e[5mC]; antisense) [compound 531186]”: under setting [2], the “% inhibition” value was determined as 75%.

Consider “530953 (antisense eG*eA*eA*eA*eA*d[5mC]*dT*dG*dA*dA*dT*dA*dG*d[5mC]*dA*eA*eA*e[5mC]*eA*e[5mC]) [compound 530953]”, for which the “% inhibition” value under setting [1] came out at 7%.

Take “530986 (e[5mC]*eG*eG*eG*eT*dA*dA*dA*dT*dT*dT*dT*dA*dG*dA*eA*eT*eG*eG*e[5mC]; antisense) [compound 530986]”: under setting [1], the “% inhibition” value is on record as 62%.

Turning to “531216 (eA*eA*eA*e[5mC]*eA*d[5mC]*dA*dG*dG*dA*dA*dT*dT*dT*dG*e[5mC]*eA*eG*eA*e[5mC]; antisense) [compound 531216]”, the “% inhibition” value under setting [2] was determined as 33%.

“531193 (eT*eT*eA*eT*eT*d[5mC]*d[5mC]*d[5mC]*dA*dG*d[5mC]*dT*d[5mC]*dT*dA*eA*eA*eA*eT*eA; antisense) [compound 531193]”: the “% inhibition” value under setting [2] came to 23%.

Take “530990 (eA*eT*eT*e[5mC]*eT*dT*d[5mC]*dT*d[5mC]*d[5mC]*dT*d[5mC]*d[5mC]*dA*dA*eA*eG*eT*e[5mC]*eA; antisense) [compound 530990]”: the “% inhibition” value under setting [1] was 32%.

Take “531064 (antisense eG*eT*eG*eT*eA*dG*dA*d[5mC]*dA*d[5mC]*d[5mC]*dA*dG*dG*dT*eT*eG*e[5mC]*eT*e[5mC]) [compound 531064]”: the “% inhibition” value under setting [3] amounted to 56%.

In the case of “531173 (antisense eA*eA*eA*eA*eT*dA*dA*d[5mC]*dT*dT*d[5mC]*dA*d[5mC]*dT*dA*eG*eA*eG*e[5mC]*eT) [compound 531173]”, under setting [2], the “% inhibition” value turned out to be 22%.

For “530944 (antisense e[5mC]*eA*eG*eA*e[5mC]*dA*dT*d[5mC]*d[5mC]*dA*d[5mC]*dA*dG*dG*dA*eA*eA*e[5mC]*eT*eG) [compound 530944]”, the “% inhibition” value under setting [1] turned out to be 0%.

Take “531066 (eA*eG*e[5mC]*eG*eA*d[5mC]*dT*dT*dT*dG*dG*dT*dG*dT*dA*eG*eA*e[5mC]*eA*e[5mC]; antisense) [compound 531066]”: under setting [3], the “% inhibition” value was 67%.

As to “531108 (antisense eT*eG*eA*eA*e[5mC]*d[5mC]*d[5mC]*dA*dA*dA*dA*d[5mC]*dT*d[5mC]*dT*eG*eG*e[5mC]*eA*e[5mC]) [compound 531108]”, the “% inhibition” value under setting [4] is recorded as 50%.

As for “531097 (eA*e[5mC]*e[5mC]*eA*eA*dG*d[5mC]*dT*d[5mC]*dA*dG*d[5mC]*d[5mC]*dT*d[5mC]*e[5mC]*eA*eA*e[5mC]*eT; antisense) [compound 531097]”, the “% inhibition” value under setting [4] is given as 41%.

With “531106 (antisense eA*eA*eG*eA*eT*d[5mC]*dT*dA*dG*dA*dT*dA*dA*dT*dT*e[5mC]*eT*eT*eG*eT) [compound 531106]”, under setting [4], the “% inhibition” value was 31%.

“531051 (antisense eA*eT*e[5mC]*e[5mC]*eG*dT*dT*dG*dG*dG*dT*dT*dA*dT*dT*eT*eT*eA*eT*eA) [compound 531051]”: under setting [3], the “% inhibition” value worked out at 51%.

With “531080 (e[5mC]*eA*eT*eT*eG*dT*d[5mC]*d[5mC]*dT*d[5mC]*dA*dG*d[5mC]*dA*dG*e[5mC]*eT*e[5mC]*eT*eG; antisense) [compound 531080]”, the “% inhibition” value under setting [3] is 55%.

With “530972 (antisense eG*eT*eA*eG*eA*dG*dG*dA*dA*d[5mC]*dT*dT*dG*dG*dT*eG*eT*eG*e[5mC]*e[5mC]) [compound 530972]”, the “% inhibition” value under setting [1] was found to be 42%.

In the case of “531068 (e[5mC]*e[5mC]*eA*eT*eG*dT*dA*d[5mC]*dT*d[5mC]*dA*dG*d[5mC]*dG*dA*e[5mC]*eT*eT*eT*eG; antisense) [compound 531068]”, the “% inhibition” value under setting [3] came to 59%.

Take “531230 (e[5mC]*eT*eT*eA*e[5mC]*dT*dG*dG*dG*d[5mC]*dT*dA*dA*dA*dA*eT*e[5mC]*eA*eA*eG; antisense) [compound 531230]”: the “% inhibition” value under setting [2] stood at 46%.

In the case of “531225 (eA*e[5mC]*eA*e[5mC]*eT*dT*dG*dT*dA*d[5mC]*d[5mC]*d[5mC]*d[5mC]*dA*dT*eA*e[5mC]*eA*eT*e[5mC]; antisense) [compound 531225]”, the “% inhibition” value under setting [2] amounted to 45%.

As for “531015 (eT*eA*eT*eG*eA*dG*dT*dG*dA*d[5mC]*d[5mC]*d[5mC]*dT*d[5mC]*d[5mC]*eA*e[5mC]*eA*e[5mC]*eA; antisense) [compound 531015]”, the “% inhibition” value under setting [3] is recorded as 52%.

For “531020 (eA*eA*eG*e[5mC]*e[5mC]*d[5mC]*dA*dT*d[5mC]*dA*dA*dA*dG*d[5mC]*dA*eG*eT*eG*eG*eG; antisense) [compound 531020]”, the “% inhibition” value under setting [3] was 0%.

Turning to “531133 (antisense eT*eT*eT*eT*eG*dT*dT*dG*dT*dG*d[5mC]*dA*dG*dA*d[5mC]*eT*eG*eA*eA*eA) [compound 531133]”, the “% inhibition” value under setting [4] was 19%.

As to “531237 (eG*eT*eG*eG*eA*dA*dT*dG*dT*d[5mC]*dA*dT*dG*dG*d[5mC]*eA*eA*eT*eT*eT; antisense) [compound 531237]”, the “% inhibition” value under setting [2] worked out at 56%.

As for “531031 (antisense eT*eT*eT*eG*eG*dA*dA*dT*dT*d[5mC]*dA*dG*dT*dG*dT*eA*eA*eT*eT*e[5mC]) [compound 531031]”, the “% inhibition” value under setting [3] is 59%.

Regarding “531120 (antisense eA*eA*eA*eT*eA*dA*dA*dA*dG*d[5mC]*dA*d[5mC]*dT*d[5mC]*dA*eG*eA*e[5mC]*eT*eG) [compound 531120]”, the “% inhibition” value under setting [4] is 0%.

Turning to “530968 (antisense e[5mC]*eA*eA*eG*eA*dT*dG*d[5mC]*dT*dG*dG*dA*dA*dG*dA*eT*eG*eT*eT*e[5mC]) [compound 530968]”, the “% inhibition” value under setting [1] is on record as 18%.

Take “531226 (eG*eA*e[5mC]*eA*eG*dT*dA*dG*dA*dG*dA*d[5mC]*dT*dG*dG*eG*eA*eA*eG*eG; antisense) [compound 531226]”: the “% inhibition” value under setting [2] was 12%.

For the substance “531050 (antisense eT*eT*eG*eG*eG*dT*dT*dA*dT*dT*dT*dT*dA*dT*dA*eA*eT*e[5mC]*eT*eT) [compound 531050]”, the “% inhibition” value under setting [3] is on record as 18%.

Regarding “531175 (antisense eT*eA*e[5mC]*eT*e[5mC]*dA*dG*dG*dA*dA*dA*dT*dT*dA*dG*eA*eA*eT*eA*eT) [compound 531175]”, under setting [2], the “% inhibition” value worked out at 25%.

For “530977 (antisense eT*e[5mC]*e[5mC]*eA*eG*dA*dT*dA*dT*dG*dG*dT*dG*dT*dT*eT*eT*e[5mC]*eT*eT) [compound 530977]”, the “% inhibition” value under setting [1] was 55%.

“531177 (antisense eT*eT*e[5mC]*eT*eT*dG*dT*dA*dA*dA*dT*dG*dT*d[5mC]*dT*eG*eA*eA*eT*eT) [compound 531177]”: the “% inhibition” value under setting [2] came to 61%.

Take “531204 (e[5mC]*eT*eT*eG*eT*dA*dG*dT*d[5mC]*dT*dG*d[5mC]*dA*d[5mC]*dT*eT*eA*eA*eT*eG; antisense) [compound 531204]”: the “% inhibition” value under setting [2] came out at 60%.

For “530943 (antisense eA*eT*e[5mC]*e[5mC]*eA*d[5mC]*dA*dG*dG*dA*dA*dA*d[5mC]*dT*dG*eT*eA*eG*e[5mC]*eA) [compound 530943]”, the “% inhibition” value under setting [1] was determined as 56%.

For the substance “530975 (antisense eG*eT*eG*eT*eT*dT*dT*d[5mC]*dT*dT*dG*dA*dG*dG*dA*eG*eT*eA*eG*eA) [compound 530975]”, the “% inhibition” value under setting [1] is 41%.

With “530963 (antisense eT*eG*eG*eT*eG*d[5mC]*dA*d[5mC]*d[5mC]*dT*dT*dT*dT*dT*dT*eG*eG*e[5mC]*eA*eT) [compound 530963]”, the “% inhibition” value under setting [1] came out at 78%.

As for “530942 (antisense e[5mC]*eA*eG*eG*eA*dA*dA*d[5mC]*dT*dG*dT*dA*dG*d[5mC]*dA*eA*eA*e[5mC]*eA*eA) [compound 530942]”, the “% inhibition” value under setting [1] is listed as 22%.

For “531205 (eA*e[5mC]*eA*eT*eT*dT*dT*dT*dT*dA*dA*dG*dT*dA*d[5mC]*eA*eG*eG*eA*eA; antisense) [compound 531205]”, the “% inhibition” value under setting [2] is on record as 0%.

For the substance “531043 (antisense eA*eT*eT*eT*eG*dT*dT*dA*d[5mC]*d[5mC]*dA*dA*dA*dG*dG*eA*eA*eT*eA*eT) [compound 531043]”, under setting [3], the “% inhibition” value is reported as 27%.

Consider “530930 (antisense eA*eA*eA*eT*eG*dA*dA*d[5mC]*dG*dG*dT*d[5mC]*dT*dT*d[5mC]*eA*eA*eG*e[5mC]*eT) [compound 530930]”, for which the “% inhibition” value under setting [1] was found to be 17%.

For “530936 (antisense eT*eG*e[5mC]*eT*eT*dG*d[5mC]*dT*dT*dG*dA*dA*dT*dA*dA*eA*eA*eT*e[5mC]*eA) [compound 530936]”, under setting [1], the “% inhibition” value came to 27%.

“531092 (e[5mC]*e[5mC]*eT*eT*e[5mC]*dA*d[5mC]*dT*dG*dA*d[5mC]*dT*d[5mC]*dT*d[5mC]*eT*eT*eT*eT*e[5mC]; antisense) [compound 531092]”: the “% inhibition” value under setting [4] amounted to 24%.

As for “531136 (antisense eT*eA*eA*e[5mC]*eA*dT*dT*dT*d[5mC]*dT*dA*dT*dG*dG*dG*e[5mC]*e[5mC]*eT*eG*eA) [compound 531136]”, the “% inhibition” value under setting [4] is on record as 6%.

Take “530969 (antisense eG*eT*eG*e[5mC]*e[5mC]*dA*d[5mC]*dT*dT*dT*d[5mC]*dA*dG*dA*dT*eG*eT*eT*eT*eT) [compound 530969]”: the “% inhibition” value under setting [1] was 0%.
